From ChEMBL document CHEMBL1201862, “PubChem BioAssay data set” (2004)
Active and inactive are the calls of the source.

How the values were obtained:
[1] = biological target: T1, Mannose-6-phosphate isomerase (Homo sapiens, UniProt P34949); experiment: inhibitors of human PMI, primary screen, biochemical, fluorescence intensity, coupled assay (AID 1209)
T1 sequence (P34949 whole entry): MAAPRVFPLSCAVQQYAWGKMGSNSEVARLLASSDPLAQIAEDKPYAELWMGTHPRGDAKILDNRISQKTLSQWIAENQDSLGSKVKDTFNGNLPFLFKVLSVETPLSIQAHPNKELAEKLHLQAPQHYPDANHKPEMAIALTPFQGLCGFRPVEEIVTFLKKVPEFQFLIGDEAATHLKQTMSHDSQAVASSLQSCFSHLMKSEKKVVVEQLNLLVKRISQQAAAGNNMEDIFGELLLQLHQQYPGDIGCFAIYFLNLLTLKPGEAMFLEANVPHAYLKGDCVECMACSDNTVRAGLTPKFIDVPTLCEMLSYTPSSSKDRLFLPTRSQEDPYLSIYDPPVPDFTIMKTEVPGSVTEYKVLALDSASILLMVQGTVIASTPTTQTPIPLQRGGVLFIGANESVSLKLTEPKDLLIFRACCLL

[2] = cytotoxicity in KRAS-transformed pancreatic duct cells, primary screen, cell-based, fluorescence, HTS (AID 431); assay type: functional; settings: Homo sapiens;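 further: cell line used: HPDE-C7K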
[3] = biological target: T2, Sentrin-specific protease 7 (Homo sapiens, UniProt Q9BQF6); assay type: functional;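 further: Luminescence-based dose-response confirmation of ultra-high-throughput screening hits, measuring inhibition of SENP7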
T2 sequence (Q9BQF6 whole entry): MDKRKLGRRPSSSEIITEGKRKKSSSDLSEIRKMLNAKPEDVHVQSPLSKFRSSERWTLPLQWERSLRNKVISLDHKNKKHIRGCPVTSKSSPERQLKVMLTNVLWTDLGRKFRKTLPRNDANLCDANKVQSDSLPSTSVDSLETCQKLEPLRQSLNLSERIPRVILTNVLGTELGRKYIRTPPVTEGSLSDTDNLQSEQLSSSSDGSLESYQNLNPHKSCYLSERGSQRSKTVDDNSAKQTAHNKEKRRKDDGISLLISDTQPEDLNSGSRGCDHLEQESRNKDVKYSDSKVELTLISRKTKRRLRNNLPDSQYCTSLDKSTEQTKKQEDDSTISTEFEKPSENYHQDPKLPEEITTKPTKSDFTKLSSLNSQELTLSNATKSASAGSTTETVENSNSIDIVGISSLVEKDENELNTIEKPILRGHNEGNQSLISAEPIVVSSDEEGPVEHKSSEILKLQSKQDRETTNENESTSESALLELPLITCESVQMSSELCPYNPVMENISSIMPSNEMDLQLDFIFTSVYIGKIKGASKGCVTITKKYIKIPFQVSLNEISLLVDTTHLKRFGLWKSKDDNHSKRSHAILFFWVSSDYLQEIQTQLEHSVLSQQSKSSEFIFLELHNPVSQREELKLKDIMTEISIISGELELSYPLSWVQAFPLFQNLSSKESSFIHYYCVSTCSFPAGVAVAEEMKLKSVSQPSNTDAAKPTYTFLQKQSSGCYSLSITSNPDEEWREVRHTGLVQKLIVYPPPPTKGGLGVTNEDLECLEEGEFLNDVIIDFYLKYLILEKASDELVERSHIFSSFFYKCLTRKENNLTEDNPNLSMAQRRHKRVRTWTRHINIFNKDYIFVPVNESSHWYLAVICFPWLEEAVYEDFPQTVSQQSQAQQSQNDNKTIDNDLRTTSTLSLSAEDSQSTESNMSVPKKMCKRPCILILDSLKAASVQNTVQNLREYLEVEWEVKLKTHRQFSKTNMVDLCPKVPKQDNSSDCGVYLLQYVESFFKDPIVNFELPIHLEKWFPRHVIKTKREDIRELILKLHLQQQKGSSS

Protein RecA = biological target: T3, Protein RecA (Mycobacterium tuberculosis, UniProt P9WHJ3); experiment: Fluorescence Cell-Free Homogeneous Dose Retest to Identify Inhibitors of RecA-Intein Splicing Activity. [Related pubchem assays (depositor defined):AID2097, AID2223, AID489010, AID492950]; assay type: functional
T3 sequence (P9WHJ3 whole entry): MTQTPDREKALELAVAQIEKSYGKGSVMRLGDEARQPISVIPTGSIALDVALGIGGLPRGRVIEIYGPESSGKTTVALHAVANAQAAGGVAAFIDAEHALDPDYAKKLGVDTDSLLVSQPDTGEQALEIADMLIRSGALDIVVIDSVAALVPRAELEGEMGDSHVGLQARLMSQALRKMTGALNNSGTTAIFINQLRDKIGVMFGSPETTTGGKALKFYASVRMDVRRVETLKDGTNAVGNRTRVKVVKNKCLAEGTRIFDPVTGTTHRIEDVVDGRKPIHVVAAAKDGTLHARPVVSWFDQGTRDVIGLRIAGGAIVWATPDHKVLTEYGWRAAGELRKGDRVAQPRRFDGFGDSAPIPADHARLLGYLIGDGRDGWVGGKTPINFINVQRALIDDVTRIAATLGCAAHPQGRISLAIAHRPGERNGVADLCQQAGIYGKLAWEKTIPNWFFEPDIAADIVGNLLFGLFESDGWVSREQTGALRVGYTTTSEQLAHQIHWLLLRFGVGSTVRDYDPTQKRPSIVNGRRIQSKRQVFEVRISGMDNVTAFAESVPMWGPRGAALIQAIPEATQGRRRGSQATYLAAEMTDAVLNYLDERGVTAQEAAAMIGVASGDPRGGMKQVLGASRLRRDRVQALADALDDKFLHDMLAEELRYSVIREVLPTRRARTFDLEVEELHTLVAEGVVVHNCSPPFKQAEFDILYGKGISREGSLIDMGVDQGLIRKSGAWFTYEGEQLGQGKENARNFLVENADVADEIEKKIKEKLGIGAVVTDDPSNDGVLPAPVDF

[4] = biological target: T4, Tyrosine-protein phosphatase non-receptor type 7 (Homo sapiens, UniProt P35236); experiment: HTS HePTP Fluorescent Assay using OMFP substrate for In Vitro dose response studies. [Related pubchem assays (depositor defined):AID1059, AID1077, AID1784, AID2068, AID2085, AID435032, AID521]; assay type: functional
T4 sequence (P35236 whole entry): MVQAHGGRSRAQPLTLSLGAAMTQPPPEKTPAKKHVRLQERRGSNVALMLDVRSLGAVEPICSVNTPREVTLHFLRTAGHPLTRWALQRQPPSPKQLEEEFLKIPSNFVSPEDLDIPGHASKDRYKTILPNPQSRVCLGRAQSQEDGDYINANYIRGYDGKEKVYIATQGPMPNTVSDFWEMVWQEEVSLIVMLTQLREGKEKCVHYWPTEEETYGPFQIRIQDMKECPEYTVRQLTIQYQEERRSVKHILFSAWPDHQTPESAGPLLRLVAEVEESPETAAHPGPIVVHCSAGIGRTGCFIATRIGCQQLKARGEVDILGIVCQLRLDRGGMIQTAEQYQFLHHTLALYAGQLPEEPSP

[5] = cytotoxicity in HEK-293T cells, dose response, cytotoxicity control for BCR NF-kB inhibitor project, luminescence, B-cell screen hits (AID 489021); assay type: functional, cell-based;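 further: HEK-293T cells carrying an NF-kB luciferase reporter; cells exposed to compound for about 14 hours before viability readout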

Compound	IC50 [1]	EC50 [2]	IC50 [3]	EC50 (Protein RecA)	IC50 [4]	IC50 [5]
COc1ccc(Nc2ccc3c(c2)=NC2(CCCCC2)[N+]=3[O-])cc1	> 50 µM (not active)	8.16 µM (active)	9.21 µM (active)	4.39 µM (active)	–	–
COc1ccc(/C=C2\SC(=S)N(CCC(=O)Nc3ccc(C(=O)O)cc3)C2=O)cc1OC	–	–	–	–	5.64 µM (active)	> 80 µM (inactive)
